Laboratory results taken from patent publication US20140187587A1, “SYNERGISTIC FUNGICIDAL MIXTURES FOR FUNGAL CONTROL IN CEREALS” (Dow Agrosciences LLC, priority 2012, published 2014).

How the values were obtained:
[1] = system: Puccinia recondita (PUCCRT); experiment: 3-day curative (3DC) test of fungicide mixtures vs. wheat brown rust; type: in vivo; settings: single active, wheat (Yuma) plants
Experimental: (§1) For the mixture studies with the compound of Formula I: Treatments consisted of fungicides, including the compound of Formula I and fluxapyroxad. Technical grades of materials were dissolved in acetone to make stock solutions, which were then used to perform 4-fold dilutions in acetone for each individual fungicide component or for the two-way mixture. Desired fungicide rates were obtained after mixing dilutions with 9 volumes of water containing 110 parts per million (ppm) Triton X-100. The fungicide solutions (20 milliliters (mL)) were applied to 12 pots of plants using an automated booth sprayer, which utilized two 6218-1/4 JAUPM spray nozzles operating at 20 pounds per square inch (psi) set at opposing angles to cover both leaf surfaces. All sprayed plants were allowed to air dry prior to further handling. Control plants were sprayed in the same manner with a solvent blank.
Evaluation of Curative Activity of Fungicide Mixtures vs. Wheat Brown Rust (Puccinia recondita; Bayer Code: PUCCRT).
Yuma wheat seedlings were grown as described above and inoculated with an aqueous spore suspension of Puccinia recondita 3 days prior to fungicide treatment (3DC). After inoculation, plants were placed in a dew room for 1 day to allow for infection to occur. The plants were then placed in the greenhouse for symptom development to occur, which in the case of PUCCRT typically required 7-10 days.
(§2) When disease severity reached 50-100% on the control plants, infection levels were assessed on treated plants visually and scored on a scale of 0 to 100 percent. The percentage of disease control was then calculated using the ratio of disease on treated plants relative to control plants.
(§3) The Colby equation was used to determine the fungicidal effects expected from the mixtures. (See Colby, S. R. Calculation of the synergistic and antagonistic response of herbicide combinations. Weeds 1967, 15, 20-22.)
(§4) The following equation was used to calculate the expected activity of mixtures containing two active ingredients, A and B:
(§5) A=observed efficacy of active component A at the same concentration as used in the mixture;
(§6) B=observed efficacy of active component B at the same concentration as used in the mixture.

[2] = system: Septoria tritici (SEPTTR); experiment: 1-day protectant (1DP) test of fungicide mixtures vs. leaf blotch of wheat; type: in vivo, Mycosphaerella graminicola; anamorph: Septoria tritici; settings: single active, wheat (Yuma) plants
Experimental: as §1
Evaluation of Curative and Protectant Activity of Fungicide Mixtures vs. Leaf Blotch of Wheat (Mycosphaerella graminicola; Anamorph: Septoria tritici; Bayer Code: SEPTTR).
Wheat plants (variety Yuma) were grown from seed in a greenhouse in plastic pots with a surface area of 27.5 square centimeters (cm^2) containing 50% mineral soil/50% soil-less Metro mix, with 8-12 seedlings per pot. The plants were utilized for testing when the first leaf was fully emerged, which typically occurred 7-8 days after planting. Test plants were inoculated with an aqueous spore suspension of Septoria tritici either (a) 3 days prior to fungicide treatments (3-day curative test, 3DC) or (b) 1 day after fungicide treatments (1-day protectant test, 1DP). After inoculation the plants were placed in a dew room from 1-3 days to allow for infection to occur. The plants were then placed in the greenhouse for symptom development to occur, which in the case of SEPTTR typically required 25-30 days.
as §2, §3, §4, §5, §6

SMILES	% DC Obs (percent disease control observed), PUCCRT 3DC ([1]; application rate 0.1 ppm) [%]	% DC Obs (percent disease control observed), PUCCRT 3DC ([1]; application rate 0.39 ppm) [%]	% DC Obs (percent disease control observed), PUCCRT 3DC ([1]; application rate 1.56 ppm) [%]	% DC Obs (percent disease control observed), PUCCRT 3DC ([1]; application rate 6.25 ppm) [%]	% DC Obs (percent disease control observed), SEPTTR 1DP ([2]; application rate 0.1 ppm) [%]	% DC Obs (percent disease control observed), SEPTTR 1DP ([2]; application rate 0.39 ppm) [%]	% DC Obs (percent disease control observed), SEPTTR 1DP ([2]; application rate 1.56 ppm) [%]	% DC Obs (percent disease control observed), SEPTTR 1DP ([2]; application rate 6.25 ppm) [%]
COc1ccnc(C(=O)N[C@H]2COC(=O)[C@H](Cc3ccccc3)[C@@H](OC(=O)C(C)C)[C@H](C)OC2=O)c1OCOC(=O)C(C)C [Compound I, (3S,6S,7R,8R)-8-benzyl-3-(3-((isobutyryloxy)methoxy)-4-methoxypicolinamido)-6-methyl-4,9-dioxo-1,5-dioxonan-7-yl isobutyrate]	2	0	12	98	0	0	2	93
Cn1cc(C(=O)Nc2ccccc2-c2cc(F)c(F)c(F)c2)c(C(F)F)n1 [Fluxapyroxad, 3-(difluoromethyl)-1-methyl-N-(3′,4′,5′-trifluorobiphenyl-2-yl)pyrazole-4-carboxamide]	0	0	86	100	0	0	0	94
